Results published in PubChem BioAssay AID179 (DTP/NCI, 2004).
pEC50, pIC50: −log10 of the molar value. “And” between values parts separate entries of the source, which are not always exact repeats. Equal values may be shown once. The source made the active and inactive calls.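 The calls were made as follows: active = compounds giving half or more protection of infected cells from virus-caused growth loss, again on retest; inactive = the rest.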

System: CEM cells HIV-1 protection, formazan growth assay
Assay: NCI AIDS Antiviral Assay
Conditions: for pIC50: measured here: growth of uninfected CEM cells
Method in brief: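 Five concentrations of each compound were applied to infected and uninfected human CEM cells. Protection from HIV-1 was judged from growth measured with a soluble formazan assay.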

| SMILES | pEC50 | pIC50 | outcome |
| --- | --- | --- | --- |
| N[C@H](CSSC[C@@H](N)C(=O)Nc1ccc2ccccc2c1)C(=O)Nc1ccc2ccccc2c1 | < 3.70 | 5.56 and 5.45 |  |
| O=C(/C=C\c1ccc(Cl)c(Cl)c1)c1ccccc1 | < 3.70 | 5.00 |  |
| CCN(CC)/[N+]([O-])=N/OCOC | < 3.70 | < 3.70 |  |
| Nc1nc(Cl)nc2c1ncn2C1CC(O)C(CO)O1 (configuration not stated) | < 3.20 | 5.51 |  |
| O=c1nc2occc2cn1C1CC(O)C(CO)O1 (configuration not stated) | < 3.29 | < 3.29 |  |
| O=C(/C=C/c1cccs1)c1ccccc1Cl | < 3.70 | 4.95 |  |
| CCOC(=O)C1(C(C)=O)OC(=O)c2cnccc21 (configuration not stated) | < 3.70 | < 3.70 |  |
| Cc1ccc(S(=O)(=O)c2ccccc2)cc1 | < 3.81 | < 3.81 |  |
| ClC1(c2ccccc2)c2ccc(Br)cc2-c2cc(Br)ccc21 | < 3.70 | 5.24 |  |
| CCOC(=O)c1ccc(-c2ccc(Cl)cc2)[nH]1 | < 3.70 | 4.35 |  |
| C[N+]12CN3CN(C1)CP(=O)(C3)C2 | < 3.10 | 3.94 |  |
| Nc1nncc2n[nH]nc12 | < 3.70 | 3.76 |  |
| COc1ccc(-c2cc(=O)c3c(OC)c(O)c(OC)cc3o2)cc1 | < 3.70 | 4.41 |  |
| O=C1C=C(C23CC4CC(CC(C4)C2)C3)Nc2ccccc2N1 | < 3.70 |  |  |
| COC(=O)C1[C@H](C(=O)OC)C1(Br)CBr (some centres not stated) | < 3.70 | 4.01 |  |
| O=c1[nH]nc(-c2ccccc2)n1/N=C/c1ccccc1Cl | < 3.70 | 4.13 |  |
| O[Si](c1ccc(C(F)(F)F)cc1)(c1cccc(C(F)(F)F)c1)c1cccc(C(F)(F)F)c1 | < 3.70 | 4.98 |  |
| CC(=O)OCC1OC(n2c(=S)n(-c3ccc(C)cc3)c(=O)c3ccccc32)C(OC(C)=O)C(OC(C)=O)C1OC(C)=O (configuration not stated) | < 4.50 | < 4.50 |  |
| Cc1nc2c(C)ccc([N+](=O)[O-])c2c(NCCCN(C)C)c1C | < 3.70 | 4.16 |  |
| Cc1cccc(NC(=O)CSc2nnc(Cc3ccccc3)o2)c1 | < 3.27 | < 3.27 |  |
| CCCCCCCCCCCCN(O)C(=O)c1ccccc1 | < 4.77 | < 4.77 |  |
| Nc1ccc(C(=O)Nn2c(-c3ccccc3)nc3ccccc3c2=O)cc1 | < 3.70 | < 3.70 |  |
| Cc1c(C(=O)NNc2ccccc2)n2c(=S)[nH]nc2c2ccccc12 | < 3.70 | 4.03 |  |

| SMILES | pEC50 | pIC50 | outcome |
| --- | --- | --- | --- |
| Cc1ccc(C(=O)NCCCl)cc1C |  |  | inactive |
| O=C(Cn1ccnc1[N+](=O)[O-])c1ccccc1 | < 3.25 | < 3.25 |  |
| COC(=O)C(=O)C(C(C)=O)C(=O)NCc1ccc(OC)c(OC)c1 (configuration not stated) | 4.21 | 3.13 |  |
| CC(CNCCCNCCNCCCNCO)[N+](=O)[O-] (configuration not stated) |  |  | inactive |
| CCOC(=O)CCC(NC(=O)c1ccc(NC(OC)c2nc3cc(C(F)(F)F)ccc3nc2-c2ccccc2)cc1)C(=O)OCC (configuration not stated) | < 5.09 | < 5.09 |  |
| CC(C)/C(Cl)=N/OC(=O)Nc1ccc(Br)cc1 | < 4.70 | 5.43 |  |
| Nc1ccccc1C(=O)NNC(=O)c1ccccc1N | < 3.70 | < 3.70 |  |
| N=C(N)CCNC(=O)c1c[nH]c2nc(N)[nH]c(=O)c12 | < 3.46 | < 3.46 |  |
| CC1CCC2C(C)C(=O)OC3OC4(C)CCC1C32OO4 (configuration not stated) | < 3.34 | 3.54 |  |
| CC(=O)O/N=C1\C=Cc2c(no[n+]2[O-])C1=O | < 3.70 | 4.74 |  |
| O=C1c2ccccc2C(=O)N1C/C=N/NS(=O)(=O)c1cccc([N+](=O)[O-])c1 | < 3.19 | < 3.19 |  |
| COC(=O)N/N=C(/CCC(=O)Nc1ccc(C)c(C)c1)CC(=O)C(C)(C)C | < 3.18 | < 3.18 |  |
| CC(=O)C12C[C@](C#N)(N3CCCCCC3)C1C=Cc1ccccc12 (some centres not stated) | < 3.70 | < 3.70 |  |
| O=C(N/N=C/c1cccc(O)c1O)N/N=C/c1cccc(O)c1O | < 3.70 | 5.17 |  |
| O=C(O)CC(O)(c1ccccc1C(=O)O)c1cccc2ccccc12 (configuration not stated) |  |  | inactive |
| COC(=O)C1=C(C)C=C(N2CCOCC2)C(C(=O)OC)C1c1ccccc1 (configuration not stated) | < 3.70 | < 3.70 |  |
| Nc1ccc(C(=O)N/C(=C\c2cccc([N+](=O)[O-])c2)c2nc3[nH]c(=S)[nH]c(=O)c3[nH]2)cc1 |  |  | inactive |
| CC1(C)CCC[C@@]2(C)C1CCC1(C)C(CCc3ccoc3)/C(=C/OS(=O)(=O)O)CCC12 (some centres not stated) (tested in a mixture with another compound) | < 3.84 | < 3.84 |  |
| Cc1nc2c(=O)[nH]c(=O)nc-2n(CCO)c1C | < 4.00 | 4.39 |  |
| COC(=O)CCS/C=C/C(=O)O | < 2.88 | < 2.88 |  |
| Cc1cc(=O)oc2cc(OCc3nc4ccccc4c(=O)[nH]3)ccc12 | < 3.97 | < 3.97 |  |
| C=C(c1ccccc1)[P+](c1ccccc1)(c1ccccc1)c1ccccc1 | < 4.70 | 6.66 |  |
| N#Cc1c(-c2ccc([N+](=O)[O-])cc2)c(C#N)c(=O)n(NS(=O)(=O)c2ccccc2)c1O | < 3.70 | < 3.70 |  |

| SMILES | pEC50 | pIC50 | outcome |
| --- | --- | --- | --- |
| Cc1c2c(n3c(nc4ccccc43)c1C#N)NCC2 | < 3.70 | < 3.70 |  |
| CC1(Cl)C(=O)NC(=O)N([C@H]2C[C@H](O)[C@@H](CO)O2)C1N=[N+]=[N-] (some centres not stated) | < 3.70 | < 3.70 |  |
| Cc1nc(C(=O)O)c2ccccc2n1 |  |  | inactive |
| CCOP(=O)(OCC)/C(C#N)=C/c1ccc(Cl)cc1 | < 3.50 | 3.71 |  |
| CC(=O)OCC1OC(Sc2nc(-c3ccc(C)cc3)c(C#N)c(=O)n2C2OC(COC(C)=O)C(OC(C)=O)C(OC(C)=O)C2OC(C)=O)C(OC(C)=O)C(OC(C)=O)C1OC(C)=O (configuration not stated) | < 4.00 and 4.16 | < 4.00 |  |
| O=c1[nH]c2ccc(C(F)(F)F)cc2nc1-c1ccccc1 | < 3.70 | < 3.70 |  |
| O=P1(c2ccccc2)Nc2ccccc2N1c1ccccc1 (configuration not stated) | < 3.70 | 4.42 |  |
| ClCCN1CCOC1=Nc1ccc2c(c1)CCCC2 | < 3.70 | 4.36 |  |
| COc1cccc(CCNc2c(C#N)c3n(c4ccccc4[n+]3C)c3ncccc23)c1 | < 3.70 | 6.00 |  |
| CC(=O)Nc1ccc(/C=C(\NC(=O)c2ccccc2)C(=O)NNS(=O)(=O)c2ccc(C)cc2)cc1 | < 4.28 | < 4.28 |  |
| COC(=O)CC1(C)CCC2(OC(CC(C)=O)C3C(C)(C)CCC[C@@]32C)O1 (some centres not stated) | < 3.70 | 3.85 |  |
| c1cc[c]([Sn]([S]c2ccccn2)([c]2ccccc2)[c]2ccccc2)cc1 | < 5.70 | 6.47 |  |
| Cc1ccc(-c2csc(=Nc3c(C)n(C)n(-c4ccccc4)c3=O)n2CCO)cc1 | < 3.70 | 4.10 |  |
| O=C(O)C1[S][Bi]([S]C(C(=O)O)C([S][Bi]2[S]C(C(=O)O)C(C(=O)O)[S]2)C(=O)O)[S]C1C(=O)O (configuration not stated) | < 5.88 | < 5.88 |  |
| COC(=O)C1(Cc2ccc(C)cc2)Cc2c(C)cccc2C1=O (configuration not stated) | < 3.70 | 5.05 |  |
| O=c1cc(O)nc2nc(-c3ccccc3)c(-c3ccccc3)nn12 | < 4.09 | < 4.09 |  |
| CCOc1ccc(NC(=S)N/C=C(/C#N)C(N)=O)cc1 | < 3.70 | 3.80 |  |
| O=Nc1c(O)ccc2ccccc12 | < 3.70 | 5.62 |  |
| C#CCN1C(=O)NC(c2ccccc2)(c2ccccc2)C1=O.[C-]#[O+].[C-]#[O+].[C-]#[O+].[C-]#[O+].[C-]#[O+].[C-]#[O+].[Co].[Co] | < 3.70 | 5.05 |  |
| CC(C)N(C(=O)c1cccc(C(=O)N(C(C)C)C(C)C)c1)C(C)C | < 3.12 | 3.33 |  |
| N#C/C(=C\c1ccc(O)c(O)c1)C(=O)NCCc1ccc(O)c(O)c1 | < 3.70 | 4.51 |  |
| CC(=O)c1c(-c2ccco2)c(C#N)c(=S)n(C2OC(CO)C(O)C(O)C2O)c1C (configuration not stated) | < 3.70 | 4.06 |  |
| COc1ccc(CC#N)c(OCc2ccccc2)c1 | < 4.27 | 4.75 |  |

| SMILES | pEC50 | pIC50 | outcome |
| --- | --- | --- | --- |
| Cc1ccc(S(=O)(=O)Nn2c(O)c(C#N)c(-c3ccccc3)c(C#N)c2=O)cc1 | < 3.70 | < 3.70 |  |
| CCOc1cc(N=Nc2cc(Cl)c(S(=O)(=O)O)cc2Cl)c2cc(S(=O)(=O)O)ccc2c1N=Nc1c(S(=O)(=O)O)cc2cc(NC(=O)c3ccc(N)cc3)ccc2c1O |  |  | active |
| CC(C)N1CN(C(C(=O)N[C@@H]2C(=O)N3C2SC(C)(C)C3C(=O)O)c2ccccc2)CSC1=S (some centres not stated) | < 3.59 | 3.81 |  |
| CC1(c2ccccc2)CCCC/C1=N/NC(N)=O (configuration not stated) | 3.98 | 3.89 |  |
| CCCNC(=O)SCc1ccccc1 |  |  | inactive |
| CCN1c2ccccc2NC(=S)c2c1n[nH]c2-c1ccccc1 | < 3.70 | 4.27 |  |
| CSC1=C(C(=O)Nc2ccc(C)cc2)C(N)=NC1=O | < 4.00 | < 4.00 |  |
| O=C1CN(CCc2ccccc2)CC(=O)N2C(c3ccccc3)CCCN12 (configuration not stated) |  |  | inactive |
| Fc1cc(F)c(F)c(S)c1F |  |  | active |
| O=C1Nc2ccccc2Oc2ccccc21 | 4.29 | < 3.70 |  |
| COC(=O)C1(C(=O)OC)C/C(C)=C(/C)SCCCS1 | < 3.70 | < 3.70 |  |
| COc1cc(Nc2ccc3c(c2)CCC3)nc(OC)n1 | < 3.70 | 4.50 |  |
| CO[C@H](C(=O)O[C@H]1C(=O)N2CC[C@@H]3CCC[C@H]1C32C)c1ccccc1 (some centres not stated) | < 3.14 | 3.36 |  |
| COC1=C(C(=O)OC(C)(C)C)C23CCCCCCCCCCC2(C(C(=O)OC(C)(C)C)=C(OC)C3C(=O)OC(C)(C)C)C1C(=O)OC(C)(C)C (configuration not stated) | < 4.60 | 4.63 |  |
| CCCCCCCCCCCCCCCC(=O)OC(CC(=O)O)C[N+](C)(C)C (configuration not stated) |  |  | inactive |
| [Cu+2].[NH-]c1ccccc1C(=O)O.[NH-]c1ccccc1C(=O)O | < 3.70 | 4.76 |  |
| CC(=Nc1ccc(N(C)C)cc1)c1ccccc1 | < 3.70 | 4.54 |  |
| CC(C)c1ncc([N+](=O)[O-])n1C | < 3.70 | < 3.70 |  |
| CCOC(=O)/C(C(=O)c1ccc[nH]1)=C1/CCCN1C | < 3.70 | 3.89 |  |
| Cc1cc(=O)n(CC(=O)O)c2ccccc12 | < 3.70 | 3.98 |  |
